Biological target: T1, FSHR (Homo sapiens, UniProt P23945)
T1 construct: expressed in transfected cells; host or cells: CHO (Cho-FSHR-LUC-1-1-43)
T1 sequence (P23945 18-695): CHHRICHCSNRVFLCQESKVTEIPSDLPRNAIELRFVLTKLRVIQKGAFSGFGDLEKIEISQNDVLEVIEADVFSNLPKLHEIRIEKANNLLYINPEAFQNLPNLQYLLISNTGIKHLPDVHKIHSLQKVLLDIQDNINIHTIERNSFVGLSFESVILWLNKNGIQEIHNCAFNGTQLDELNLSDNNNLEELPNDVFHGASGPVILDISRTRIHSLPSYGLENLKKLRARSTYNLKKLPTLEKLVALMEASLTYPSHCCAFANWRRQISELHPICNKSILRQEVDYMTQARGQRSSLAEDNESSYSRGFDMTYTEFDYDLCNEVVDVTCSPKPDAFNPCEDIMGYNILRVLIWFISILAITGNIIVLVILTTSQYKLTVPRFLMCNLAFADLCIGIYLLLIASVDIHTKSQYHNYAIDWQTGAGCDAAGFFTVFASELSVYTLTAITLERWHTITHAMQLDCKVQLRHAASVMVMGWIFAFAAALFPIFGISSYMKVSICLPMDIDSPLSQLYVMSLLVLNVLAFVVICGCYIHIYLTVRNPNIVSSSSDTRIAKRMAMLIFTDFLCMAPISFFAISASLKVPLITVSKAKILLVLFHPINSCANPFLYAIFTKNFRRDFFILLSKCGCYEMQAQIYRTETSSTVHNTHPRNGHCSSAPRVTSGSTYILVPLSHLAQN
Test: EC50 of cyclic AMP production in CHO FSHR cells + EC20 FSH (Assay A)
Assay type: cell-based
Details: cyclic AMP production in CHO FSHR cells + EC20 FSH (0.265 pM), HTRF
Protocol: Example 24. EC50 of cyclic AMP production in CHO FSHR cells+EC20 FSH (Assay A)
2500 Cho-FSHR-LUC-1-1-43 cells were plated per well in 5 al of phenol red free DMEM/F12+1% FBS. Cells were plated in 384 well, solid white low volume plates (Greiner 784075) by Multidrop. Cells were assayed by adding 100 al of 2×EC20 FSH/IBMX in DMEM/F12+0.1% BSA) by Multidrop to 2 al of test compound stamped in 384 well plates (compounds are diluted 1:50). The final FSH concentration was 0.265 pM, and the final IBMX concentration was 200 μM. The compound plate map was as follows: Column 1: 2 μl of DMSO; Column 2: 2 μl of DMSO; Columns 3-12 and 13-24: 2 μl of test compound, diluted 1:4 in 100% DMSO, or 2 μl of FSH, diluted 1:4 in DMEM/F12+0.1% BSA. The starting concentration for FSH was 50 nM (final concentration was 0.5 nM). Furthermore, Column 23 contained 2 μl of EC100 FSH reference (100×) (diluted in DMEM/F12+0.1% BSA) at a final concentration of 0.5 nM, and Column 24 contained 2 μl of 1 mM AS707664/2 reference compound 2. 5 μl of compound+EC20 FSH mixture were transferred to cell plates (1:2 dilution into 5 μl of cell media) The plates were incubated at 37° C. for 1 h. 10 μl of mixed HTRF (CisBio #62AM4PEC) reagents were added per well and incubated at room temperature for 1 h. The plates were read on Envision using the cAMP HTRF—low volume 384 well protocol. The readout was the calculated fluorescence ratio (665 nm/620 nm). Values given in percent (%) indicate the percental effect (response) at a certain concentration of agonist relative to the maximum response of the FSH standard.

Compound | EC50 [nM]
COc1cc(F)cc(-n2nc(C(=O)N3CCOCC3(C)C)c3c2-c2cc(-c4cnn(CCO)c4)c(OC)cc2OC3)c1 [Compound 74, (3,3-dimethylmorpholino)(1-(3-fluoro-5-methoxyphenyl)-8-(1-(2-hydroxyethyl)-1H-pyrazol-4-yl)-7-methoxy-1,4-dihydrochromeno[4,3-c]pyrazol-3-yl)methanone] | < 10
COc1cc2c(cc1-c1ccccn1)-c1c(c(C(=O)N3CCOCC3(C)C)nn1-c1cc(Cl)cc(Cl)c1)CO2 [Compound 11, (1-(3,5-dichlorophenyl)-7-methoxy-8-(pyridin-2-yl)-1,4-dihydrochromeno[4,3-c]pyrazol-3-yl)(3,3-dimethylmorpholino)methanone] | < 10
CCC1(COC)CCCN1C(=O)c1nn(-c2ccsc2)c2c1COc1cc(OC)c(-c3ccn(C)n3)cc1-2 (centres unmarked) [Compound 128, (2-ethyl-2-(methoxymethyl)pyrrolidin-1-yl)(7-methoxy-8-(1-methyl-1H-pyrazol-3-yl)-1-(thiophen-3-yl)-1,4-dihydrochromeno[4,3-c]pyrazol-3-yl)methanone] | 10 to 100
COc1cc2c(cc1C#CC(N)=O)-c1c(c(C(=O)N(C)C(C)(C)C)nn1-c1ccsc1)CO2 [Compound 186, 8-(3-amino-3-oxoprop-1-ynyl)-N-tert-butyl-7-methoxy-N-methyl-1-(thiophen-3-yl)-1,4-dihydrochromeno[4,3-c]pyrazole-3-carboxamide] | 10 to 100
COc1cc2c(cc1-c1ccn(C)n1)-c1c(c(C(=O)N3CCCC3(CO)CC(C)C)nn1-c1ccsc1)CO2 (centres unmarked) [Compound 126, (2-(hydroxymethyl)-2-isobutylpyrrolidin-1-yl)(7-methoxy-8-(1-methyl-1H-pyrazol-3-yl)-1-(thiophen-3-yl)-1,4-dihydrochromeno[4,3-c]pyrazole-3-yl)methanone] | 10 to 100
COc1cc(OC)cc(-n2nc(C(=O)N3CCOCC3(C)C)c3c2-c2cc(-c4ccccn4)c(OC)cc2OC3)c1 [Compound 47, (1-(3,5-dimethoxyphenyl)-7-methoxy-8-(pyridin-2-yl)-1,4-dihydrochromeno[4,3-c]pyrazol-3-yl)(3,3-dimethylmorpholino)methanone] | 10 to 100
COc1cc2c(cc1-c1ccn(C)n1)-c1c(c(C(=O)N3CCS(=O)(=O)CC3(C)C)nn1-c1cc(Cl)cc(Cl)c1)CO2 [Compound 13, 4-{[1-(3,5-dichlorophenyl)-7-methoxy-8-(1-methyl-1H-pyrazol-3-yl)-1H,4H-chromeno[4,3-c]pyrazol-3-yl]carbonyl}-3,3-dimethyl-1l{6},4-thiomorpholine-1,1-dione] | 10 to 100
COc1cc2c(cc1-c1cnn(CC(O)CO)c1)-c1c(c(C(=O)N(C)C(C)(C)C)nn1-c1cc(Cl)cc(Cl)c1)CO2 (single isomer, unassigned) [Compound 192, N-tert-butyl-1-(3,5-dichlorophenyl)-8-(1-(2,3-dihydroxypropyl)-1H-pyrazol-4-yl)-7-methoxy-N-methyl-1,4-dihydrochromeno[4,3-c]pyrazole-3-carboxamide] | 101 to 500
COc1cc2c(cc1-c1cnoc1C)-c1c(c(C(=O)N(C)C(C)(C)C)nn1-c1cc(Cl)cc(Cl)c1)CO2 [Compound 15, N-tert-butyl-1-(3,5-dichlorophenyl)-7-methoxy-N-methyl-8-(5-methylisoxazol-4-yl)-1,4-dihydrochromeno[4,3-c]pyrazole-3-carboxamide] | < 10
COc1cc2c(cc1-c1ccc(F)c(C(=O)O)c1)-c1c(c(C(=O)N(C)C(C)(C)C)nn1-c1cc(Cl)cc(Cl)c1)CO2 [Compound 180] | 10 to 100
COc1cc2c(cc1[C@H]1C[C@@H]1C(=O)O)-c1c(c(C(=O)N(C)C(C)(C)C)nn1-c1cc(F)cc(F)c1)CO2 (racemic) [Compound 205] | 10 to 100
COc1cc(OC)cc(-n2nc(C(=O)N(C)C(C)(C)C)c3c2-c2cc(-c4nn(C)cc4C(N)=O)c(OC)cc2OC3)c1 [Compound 144, N-tert-butyl-8-(4-carbamoyl-1-methyl-1H-pyrazol-3-yl)-1-(3,5-dimethoxyphenyl)-7-methoxy-N-methyl-1,4-dihydrochromeno[4,3-c]pyrazole-3-carboxamide] | > 500

Next, values leading:

EC50 [nM] | Compound
< 10 | COc1cc2c(cc1-c1c(C)nn(CC(=O)N(C)C)c1C)-c1c(c(C(=O)N(C)C(C)(C)C)nn1-c1cc(Cl)cc(Cl)c1)CO2 [Compound 136, N-tert-butyl-1-(3,5-dichlorophenyl)-8-(1-(2-(dimethylamino)-2-oxoethyl)-3,5-dimethyl-1H-pyrazol-4-yl)-7-methoxy-N-methyl-1,4-dihydrochromeno[4,3-c]pyrazole-3-carboxamide]
10 to 100 | COc1cc(OC)cc(-n2nc(C(=O)N(CCO)C(C)(C)C)c3c2-c2cc(-c4ccn(C)n4)c(OC)cc2OC3)c1 [Compound 124, N-tert-butyl-1-(3,5-dimethoxyphenyl)-N-(2-hydroxyethyl)-7-methoxy-8-(1-methyl-1H-pyrazol-3-yl)-1,4-dihydrochromeno[4,3-c]pyrazole-3-carboxamide]
< 10 | COc1cc2c(cc1CC(C)C)-c1c(c(C(=O)N(C)C(C)(C)C#N)nn1-c1ccsc1)CO2 [Compound 133, N-(2-cyanopropan-2-yl)-8-isobutyl-7-methoxy-N-methyl-1-(thiophen-3-yl)-1,4-dihydrochromeno[4,3-c]pyrazole-3-carboxamide]
10 to 100 | COc1cc2c(cc1-c1ccn(C)n1)-c1c(c(C(=O)N3CCC(S(C)(=O)=O)CC3(C)C)nn1-c1ccsc1)CO2 (centres unmarked) [Compound 129, (2,2-dimethyl-4-(methylsulfonyl)piperidin-1-yl)(7-methoxy-8-(1-methyl-1H-pyrazol-3-yl)-1-(thiophen-3-yl)-1,4-dihydrochromeno[4,3-c]pyrazol-3-yl)methanone]
< 10 | COc1cc(Cl)cc(-n2nc(C(=O)N(C)C(C)(C)C)c3c2-c2cc(-c4cncc(C#N)c4)c(OC)cc2OC3)c1 [Compound 35, N-tert-butyl-1-(3-chloro-5-methoxyphenyl)-8-(5-cyanopyridin-3-yl)-7-methoxy-N-methyl-1,4-dihydrochromeno[4,3-c]pyrazole-3-carboxamide]
< 10 | COc1cc(OC)cc(-n2nc(C(=O)N3CC[S+]([O-])CC3(C)C)c3c2-c2cc(-c4cncc(C)c4)c(OC)cc2OC3)c1 (centres unmarked) [Compound 45, (1-(3,5-dimethoxyphenyl)-7-methoxy-8-(5-methylpyridin-3-yl)-1,4-dihydrochromeno[4,3-c]pyrazol-3-yl)(S-oxo-3,3-dimethylthiomorpholino)methanone]

Biological target: T2, follicle-stimulating hormone (FSH) receptor (Rattus norvegicus, UniProt P20395)
T2 construct: endogenous in cells; host or cells: rat granulosa cells
T2 sequence (P20395 18-692): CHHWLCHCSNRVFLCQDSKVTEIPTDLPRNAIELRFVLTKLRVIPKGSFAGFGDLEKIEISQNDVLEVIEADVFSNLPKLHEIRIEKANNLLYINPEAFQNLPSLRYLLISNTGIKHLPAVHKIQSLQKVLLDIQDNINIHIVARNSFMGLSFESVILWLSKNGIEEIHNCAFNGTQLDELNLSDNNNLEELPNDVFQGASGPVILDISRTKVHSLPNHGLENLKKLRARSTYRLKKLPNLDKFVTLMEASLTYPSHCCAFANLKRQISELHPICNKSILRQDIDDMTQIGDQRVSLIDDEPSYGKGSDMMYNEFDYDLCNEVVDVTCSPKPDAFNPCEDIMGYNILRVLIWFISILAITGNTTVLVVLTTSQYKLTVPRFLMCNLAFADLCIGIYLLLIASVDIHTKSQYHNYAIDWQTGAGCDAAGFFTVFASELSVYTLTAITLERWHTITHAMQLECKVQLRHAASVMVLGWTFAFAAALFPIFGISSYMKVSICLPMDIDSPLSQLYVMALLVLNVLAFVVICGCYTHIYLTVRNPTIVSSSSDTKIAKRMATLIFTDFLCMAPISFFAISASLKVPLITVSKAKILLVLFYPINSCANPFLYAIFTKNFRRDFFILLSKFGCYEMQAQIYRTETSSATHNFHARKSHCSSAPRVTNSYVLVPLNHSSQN
Test: Rat granulosa EC50 FSH (Assay B)
Assay type: cell-based
Details: not given
Protocol: Example 25. Rat granulosa EC50 FSH (Assay B)
The assay was performed pursuant to the teaching of Yanofsky et al. (2006) Allosteric activation of the follicle-stimulating hormone (FSH) receptor by selective, nonpeptide agonists (JBC 281(19): 13226-13233, which is incorporated by reference in the disclosure of the invention).

EC50 [nM] | Compound
10 to 100 | COc1cc(F)cc(-n2nc(C(=O)N3CCOCC3(C)C)c3c2-c2cc(-c4cnn(CCO)c4)c(OC)cc2OC3)c1 [Compound 74, (3,3-dimethylmorpholino)(1-(3-fluoro-5-methoxyphenyl)-8-(1-(2-hydroxyethyl)-1H-pyrazol-4-yl)-7-methoxy-1,4-dihydrochromeno[4,3-c]pyrazol-3-yl)methanone]
10 to 100 | COc1cc2c(cc1-c1c(C)nn(CC(=O)N(C)C)c1C)-c1c(c(C(=O)N(C)C(C)(C)C)nn1-c1cc(Cl)cc(Cl)c1)CO2 [Compound 136, N-tert-butyl-1-(3,5-dichlorophenyl)-8-(1-(2-(dimethylamino)-2-oxoethyl)-3,5-dimethyl-1H-pyrazol-4-yl)-7-methoxy-N-methyl-1,4-dihydrochromeno[4,3-c]pyrazole-3-carboxamide]
